Where a name gives a salt, the structure may show the parent alone. Each block holds one compound with its values, some of them ahead of it. Non-standard residues stand in square brackets, D forms with d. Residues, ends and D or L forms follow the SMILES beside them. Dopa = N[C@@H](Cc1ccc(O)c(O)c1)C(=O)O
What was measured:
[1] = Human liver S9 stability test; format: in vitro ADME; conditions: substrate 10 μM, S9 protein 0.2 mg/mL; for Ke: slope of the percentage decrease of remaining compound, 0-60 minutes
Experimental: The stability of several LDAA compounds, in their TFA salt form, in human liver S9 was tested using commercially available liver S9. The substrate concentration was 10 μM, the S9 protein concentration was 0.2 mg/mL, and the incubation time 0, 5, 15, 30 and 60 minutes.
The results are described in Table 18, wherein the results describe the Ke, i.e., the slope of the percentage decrease of the remaining amount of the compound, measured at each of the above time points, such that the higher the Ke the faster the metabolism.

physchem = format: physicochemical
Experimental: The volume of the solution in the bottle was adjusted to 5 ml, either by adding solvent, or be removing any residual solution, after which the bottle was tightly closed and left at 25° C. for stability observation. It is noted that throughout Example 4, the concentrations in the tables below were calculated taking into account the amount of solvent added or the solution removed, in which event, the calculations were performed regarding the 5 ml+(amount removed) as the volume of the solution. It is further noted that throughout this document, unless mentioned otherwise, the stability was measured using the manual visual inspection Bosch apparatus MIH DX, at a magnification of ×1.75.
(§1) The LD-Tyr free base, prepared according to Example 2, was added to a solvent, as detailed in Table 7 below, and neutralized by addition of NaOH. When maximum solubility was observed, the solution was filtered and then transferred to a bottle that was previously weighed and flushed with nitrogen. The volume of the solution in the bottle was adjusted to 5 ml, after which the bottle was tightly closed and left at 25° C. for stability observation.
(§2) When maximum solubility was observed, the solution was filtered and then transferred to a bottle that was previously weighed and flushed with nitrogen. The volume of the solution in the bottle was adjusted to 5 ml, after which the bottle was tightly closed and left at 25° C. for stability observation.
as §2, with “stored” for “left”
as §2, with “stored” for “left”
as §1, with “LD-Lys TFA salt,” for “The LD-Tyr free base,”, “1, and which comprises two equivalents of TFA,” for “2,”, “11” for “7”, “stored” for “left”
as §2, with “As detailed above regarding other solutions, with the LD-Tyr free base when” for “When”
as §1, with “LD-Lys HCl salt,” for “The LD-Tyr free base,”, “3,” for “2,”, “13” for “7”, “by the” for “by”

[2] = Comparative formulation tests, physical stability (Tables 32a-c, 33a-c); format: physicochemical; conditions: LDAA TFA salt/CD formulation; for Physical stability (visual), Day 1: Day 1, room temperature; for Physical stability (visual), Day 2: Day 2, room temperature; for Physical stability (visual), Day 5: Day 5, room temperature after two days at 2-8° C.; for Physical stability (visual), Day 6: Day 6, room temperature after two days at 2-8° C.; for Physical stability (visual), Day 40: Day 40, returned to 2-8° C.
Experimental: It is noted that the formulations were similarly to those above; however, CD was added, and further, the amounts of the antioxidants, i.e., ascorbic acid and NAC, were added at three different concentrations, as detailed in Tables 32a-c below. Further, an additional amount of arginine was added to the solution in order to adjust the pH to a physiologically acceptable pH.
The formulations prepared as detailed in Tables 32a, 32b and 32c were (a) held at room temperature for two days; (b) transferred to a refrigerator (2-8° C.) for two days; and (c) transferred from the refrigerator to room temperature for an additional two days, during which they were assessed again for precipitants. The formulations were then returned to the refrigerator (2-8° C.) and assessed for precipitants on day 40. The physical stability of each formulation was assessed on the first two days and again on the last two days. The physical stability of the formulations was assessed visually. A clear solution was considered to be stable, while a solution comprising precipitants was considered to be physically unstable. The stability results of the formulations of Tables 32a, 32b and 32c are detailed in Tables 33a, 33b and 33c, respectively.

[3] = solvent 0.1% NaBis in WFI, pH 1.8
[4] = solvent 0.1% NaBis in WFI, pH 6.92
[5] = solvent 0.1% NaBis in WFI, pH 6.99
[6] = solvent 0.1% NaBis in WFI, pH 7.06
[7] = solvent […] CD solution, pH 8.48
[8] = NB 144-15, ~0.1% Asc + ~0.1% NAC
[9] = NB 144-18, ~0.4% Asc + ~0.4% NAC
[10] = NB 144-20, ~0.8% Asc + ~0.8% NAC

SMILES: N=C(N)NCCC[C@H](NC(=O)[C@@H](N)Cc1ccc(O)c(O)c1)C(=O)O [LD-Arg TFA salt, Levodopa Arginine TFA Salt]
Appearance (physchem; 0.1% NaBis in WFI, pH 1.8, 610 mg/ml salt): clear
Appearance (physchem; 0.1% NaBis in WFI, pH 6.92, 200 mg/ml salt): clear
Appearance (physchem; 0.1% NaBis in WFI, pH 6.99, 420 mg/ml salt): clear
Appearance (physchem; 0.1% NaBis in WFI, pH 7.06, 200 mg/ml salt): clear
Appearance (physchem; WFI, pH 1.7, 600 mg/ml salt): clear
Appearance (physchem; WFI, pH 7.2, 200 mg/ml salt): clear
Appearance (physchem; WFI, pH 7.2, 420 mg/ml salt): clear
Appearance (physchem; […] CD solution, pH 8.48, 180 mg/ml salt): clear
LD-Arg TFA salt concentration (physchem; [3]): 610 mg/mL
LD-Arg free base Concentration (physchem; [3]): 370 mg/mL
LD-Arg TFA salt concentration (physchem; [4]): 200 mg/mL
LD-Arg free base Concentration (physchem; [4]): 120 mg/mL
LD-Arg TFA salt concentration (physchem; [5]): 420 mg/mL
LD-Arg free base Concentration (physchem; [5]): 260 mg/mL
LD-Arg TFA salt concentration (physchem; [6]): 200 mg/mL
LD-Arg free base Concentration (physchem; [6]): 120 mg/mL
LD-Arg TFA salt concentration (physchem; solvent WFI, pH 1.7): 600 mg/mL
LD-Arg free base Concentration (physchem; solvent WFI, pH 1.7): 370 mg/mL
LD-Arg TFA salt concentration (physchem; solvent WFI, pH 7.2 (line r9)): 420 mg/mL
LD-Arg free base Concentration (physchem; solvent WFI, pH 7.2 (line r9)): 260 mg/mL
LD-Arg TFA salt concentration (physchem; solvent WFI, pH 7.2 (line r17)): 200 mg/mL
LD-Arg free base Concentration (physchem; solvent WFI, pH 7.2 (line r17)): 120 mg/mL
LD-Arg TFA salt concentration (physchem; [7]): 180 mg/mL
LD-Arg free base Concentration (physchem; [7]): 110 mg/mL
Ke [1]: 0.1268
metabolism in human liver S9 (in words) [1]: rapidly metabolized
Physical stability (visual), Day 1 [2, 8]: Stable
Physical stability (visual), Day 2 [2, 8]: Stable
Physical stability (visual), Day 5 [2, 8]: Stable
Physical stability (visual), Day 6 [2, 8]: Stable
Physical stability (visual), Day 40 [2, 8]: Stable
Physical stability (visual), Day 1 [2, 9]: Stable
Physical stability (visual), Day 2 [2, 9]: Stable
Physical stability (visual), Day 5 [2, 9]: Stable
Physical stability (visual), Day 6 [2, 9]: Stable
Physical stability (visual), Day 40 [2, 9]: Stable
Physical stability (visual), Day 1 [2, 10]: Stable
Physical stability (visual), Day 2 [2, 10]: Stable
Physical stability (visual), Day 5 [2, 10]: Stable
Physical stability (visual), Day 6 [2, 10]: Stable
Physical stability (visual), Day 40 [2, 10]: Stable

SMILES: N[C@@H](CSC[C@@H](NC(=O)[C@@H](N)Cc1ccc(O)c(O)c1)C(=O)O)C(=O)O (single isomer, unassigned; peak 1) [LD-LA1 TFA salt, Levodopa Lanthionine Peak 1 TFA Salt]
Physical stability (visual), Day 1 [2, 8]: Stable
Physical stability (visual), Day 2 [2, 8]: Stable
Physical stability (visual), Day 5 [2, 8]: Stable
Physical stability (visual), Day 6 [2, 8]: Stable
Physical stability (visual), Day 40 [2, 8]: Stable
Physical stability (visual), Day 1 [2, 9]: Precipitated
Physical stability (visual), Day 2 [2, 9]: Precipitated
Physical stability (visual), Day 5 [2, 9]: Precipitated
Physical stability (visual), Day 6 [2, 9]: Precipitated
Physical stability (visual), Day 40 [2, 9]: Precipitated
Physical stability (visual), Day 1 [2, 10]: Stable
Physical stability (visual), Day 2 [2, 10]: Stable
Physical stability (visual), Day 5 [2, 10]: Stable
Physical stability (visual), Day 6 [2, 10]: Stable
Physical stability (visual), Day 40 [2, 10]: Stable

SMILES: N[C@@H](Cc1ccc(O)c(O)c1)C(=O)N[C@@H](Cc1c[nH]c2ccccc12)C(=O)O [LD-Trp TFA salt, Levodopa Tryptophan] (H-[Dopa]-Trp-OH)
Physical stability (visual), Day 1 [2, 8]: Stable
Physical stability (visual), Day 2 [2, 8]: Stable
Physical stability (visual), Day 5 [2, 8]: Stable
Physical stability (visual), Day 6 [2, 8]: Stable
Physical stability (visual), Day 40 [2, 8]: Stable
Physical stability (visual), Day 1 [2, 9]: Stable
Physical stability (visual), Day 2 [2, 9]: Stable
Physical stability (visual), Day 5 [2, 9]: Stable
Physical stability (visual), Day 6 [2, 9]: Stable
Physical stability (visual), Day 40 [2, 9]: Stable
Physical stability (visual), Day 1 [2, 10]: Stable
Physical stability (visual), Day 2 [2, 10]: Stable
Physical stability (visual), Day 5 [2, 10]: Stable
Physical stability (visual), Day 6 [2, 10]: Stable
Physical stability (visual), Day 40 [2, 10]: Stable

Now from value to compound:

Ke [1]: 0.0015
SMILES: NC(=O)C[C@H](NC(=O)[C@@H](N)Cc1ccc(O)c(O)c1)C(=O)O [LD-Asn TFA salt, Levodopa Asparagine TFA Salt] (H-[Dopa]-Asn-OH)

Ke [1]: 0.0008
Physical stability (visual), Day 1 [2, 8]: Stable
Physical stability (visual), Day 2 [2, 8]: Stable
Physical stability (visual), Day 5 [2, 8]: Stable
Physical stability (visual), Day 6 [2, 8]: Stable
Physical stability (visual), Day 40 [2, 8]: Stable
Physical stability (visual), Day 1 [2, 9]: Stable
Physical stability (visual), Day 2 [2, 9]: Stable
Physical stability (visual), Day 5 [2, 9]: Stable
Physical stability (visual), Day 6 [2, 9]: Stable
Physical stability (visual), Day 40 [2, 9]: Stable
Physical stability (visual), Day 1 [2, 10]: Stable
Physical stability (visual), Day 2 [2, 10]: Stable
Physical stability (visual), Day 5 [2, 10]: Stable
Physical stability (visual), Day 6 [2, 10]: Stable
Physical stability (visual), Day 40 [2, 10]: Stable
SMILES: N[C@@H](Cc1ccc(O)c(O)c1)C(=O)N[C@@H](CC(=O)O)C(=O)O [LD-Asp TFA salt, Levodopa Aspartic Acid] (H-[Dopa]-Asp-OH)

Reference: patent publication US20220362386A1, “LIQUID COMPOSITIONS COMPRISING A LEVODOPA AMINO ACID CONJUGATE AND USES THEREOF” (NeuroDerm, Ltd., priority 2019, published 2022)
